Assay results reported in US20190134005A1 (BioMarin Pharmaceutical Inc., priority 2016, published 2019).

Biological target: T1, human CGT (Homo sapiens, UniProt Q16880)
T1 sequence (Q16880 21-541): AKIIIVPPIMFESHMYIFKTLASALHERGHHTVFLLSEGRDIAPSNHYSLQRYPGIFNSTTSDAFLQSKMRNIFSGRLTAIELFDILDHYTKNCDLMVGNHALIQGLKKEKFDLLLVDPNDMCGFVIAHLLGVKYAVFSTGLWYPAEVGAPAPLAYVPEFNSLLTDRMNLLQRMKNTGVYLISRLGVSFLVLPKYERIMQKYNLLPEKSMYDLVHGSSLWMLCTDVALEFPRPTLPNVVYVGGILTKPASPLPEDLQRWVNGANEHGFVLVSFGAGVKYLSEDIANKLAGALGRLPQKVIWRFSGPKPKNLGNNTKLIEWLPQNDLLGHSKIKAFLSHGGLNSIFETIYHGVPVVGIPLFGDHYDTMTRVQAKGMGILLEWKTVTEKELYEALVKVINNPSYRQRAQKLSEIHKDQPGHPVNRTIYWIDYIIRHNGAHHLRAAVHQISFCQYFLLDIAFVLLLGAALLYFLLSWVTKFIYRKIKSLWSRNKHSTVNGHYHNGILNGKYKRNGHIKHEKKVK
Test: Assay 1: CGT Enzymatic Assay (RapidFire/MS/MS, 0.01% Tween 80)
Assay type: biochemical
Details: not given

Row | Structure (SMILES) | IC50
1 | O=C1N(c2ccc(Br)cc2)C(=O)C(O)(c2cc3ccccc3[nH]2)N1c1ccc(Br)cc1 (centres unmarked) [Example 210, 1,3-bis(4-bromophenyl)-5-hydroxy-5-(1H-indol-2-yl)imidazolidine-2,4-dione] | 10 to 50 µM

Same assay, conditions: Table 1, Compounds of Formula (I) and Formula (II); CGT enzymatic assay; read-out: IC50

Row | Structure (SMILES) | IC50
2 | CC(C)C1N(c2ccc(C(F)(F)F)cc2)C(=O)N(c2ccc(C(F)(F)F)cc2)C1(O)c1cccc(OC(F)(F)F)c1 (centres unmarked) [Example 196, 4-hydroxy-5-isopropyl-4-(3-(trifluoromethoxy)phenyl)-1,3-bis(4-(trifluoromethyl)phenyl)imidazolidin-2-one] | < 1 µM
3 | CC(C)[C@@H]1N(c2ccc(C(F)(F)F)cc2)C(=O)N(c2ccc(C(F)(F)F)cc2)C1(O)c1cccc(OC(F)(F)F)c1 (stereo partly drawn) [Example 196-1, (5S)-4-hydroxy-5-isopropyl-4-(3-(trifluoromethoxy)phenyl)-1,3-bis(4-(trifluoromethyl)phenyl)imidazolidin-2-one] | < 1 µM
4 | O=C1N(c2ccc(Br)cc2)C(=O)C(O)(c2ccc(Cl)s2)N1c1ccc(Br)cc1 (centres unmarked) [Example 197, 1,3-bis(4-bromophenyl)-5-(5-chlorothiophen-2-yl)-5-hydroxyimidazolidine-2,4-dione] | 10 to 50 µM
5 | O=C1N(c2ccc(Br)cc2)C(=O)C(O)(c2ccco2)N1c1ccc(Br)cc1 (centres unmarked) [Example 198, 1,3-bis(4-bromophenyl)-5-(furan-2-yl)-5-hydroxyimidazolidine-2,4-dione] | > 50 µM
6 | CCCCCCCCC1(O)C(=O)N(c2ccc(Br)cc2)C(=O)N1c1ccc(Br)cc1 (centres unmarked) [Example 199, 1,3-bis(4-bromophenyl)-5-hydroxy-5-octylimidazolidine-2,4-dione] | > 50 µM
7 | Cc1ccc(C2(O)C(=O)N(c3ccc(Br)cc3)C(=O)N2c2ccc(Br)cc2)cc1 (centres unmarked) [Example 200, 1,3-bis(4-bromophenyl)-5-hydroxy-5-(p-tolyl)imidazolidine-2,4-dione] | 50 to 100 µM
8 | O=C1N(c2ccc(Br)cc2)C(=O)C(O)(c2nccs2)N1c1ccc(Br)cc1 (centres unmarked) [Example 201, 1,3-bis(4-bromophenyl)-5-hydroxy-5-(thiazol-2-yl)imidazolidine-2,4-dione] | > 50 µM
9 | COc1ccc(C2(O)C(=O)N(c3ccc(Br)cc3)C(=O)N2c2ccc(Br)cc2)cn1 (centres unmarked) [Example 202, 1,3-bis(4-bromophenyl)-5-hydroxy-5-(6-methoxypyridin-3-yl)imidazolidine-2,4-dione] | 10 to 50 µM
10 | O=C1N(c2ccc(I)cc2)C(=O)C(O)(c2ccccc2)N1c1ccc(I)cc1 (centres unmarked) [Example 203, 5-hydroxy-1,3-bis(4-iodophenyl)-5-phenylimidazolidine-2,4-dione] | 10 to 50 µM
11 | O=C1N(c2ccc(Br)cc2)C(=O)C(O)(c2cccs2)N1c1ccc(Br)cc1 (centres unmarked) [Example 205, 1,3-bis(4-bromophenyl)-5-hydroxy-5-(thiophen-2-yl)imidazolidine-2,4-dione] | 50 to 100 µM
12 | COc1ccccc1C1(O)C(=O)N(c2ccc(Br)cc2)C(=O)N1c1ccc(Br)cc1 (centres unmarked) [Example 206, 1,3-bis(4-bromophenyl)-5-hydroxy-5-(2-methoxyphenyl)imidazolidine-2,4-dione] | > 50 µM
13 | O=C1N(c2ccc(Br)cc2)C(=O)C(O)(C2CCOCC2)N1c1ccc(Br)cc1 (centres unmarked) [Example 207, 1,3-bis(4-bromophenyl)-5-hydroxy-5-(tetrahydro-2H-pyran-4-yl)imidazolidine-2,4-dione] | 10 to 50 µM
14 | COc1ccc(C2(O)C(=O)N(c3ccc(Br)cc3)C(=O)N2c2ccc(Br)cc2)nc1 (centres unmarked) [Example 208, 1,3-bis(4-bromophenyl)-5-hydroxy-5-(5-methoxypyridin-2-yl)imidazolidine-2,4-dione] | 50 to 100 µM
15 | O=C1N(c2ccc(Br)cc2)C(O)[C@@](c2ccccc2)(C2CC2)N1c1ccc(Br)cc1 (stereo partly drawn) [Example 209-1, (4S)-1,3-bis(4-bromophenyl)-4-cyclopropyl-5-hydroxy-4-phenylimidazolidin-2-one] | 10 to 50 µM
16 | O=C1N(c2ccc(Br)cc2)C(O)[C@](c2ccccc2)(C2CC2)N1c1ccc(Br)cc1 (stereo partly drawn) [Example 209-2, (4R)-1,3-bis(4-bromophenyl)-4-cyclopropyl-5-hydroxy-4-phenylimidazolidin-2-one] | < 1 µM
17 | O=C1N(c2ccc(Br)cc2)C(=O)C(O)(c2ccc[nH]2)N1c1ccc(Br)cc1 (centres unmarked) [Example 211, 1,3-bis(4-bromophenyl)-5-hydroxy-5-(1H-pyrrol-2-yl)imidazolidine-2,4-dione] | 10 to 50 µM
18 | N#Cc1cccc(C2(O)N(c3ccc(C(F)(F)F)cc3)C(=O)N(c3ccc(C(F)(F)F)cc3)C23CCC3)c1 (centres unmarked) [Example 212, 3-(8-hydroxy-6-oxo-5,7-bis(4-(trifluoromethyl)phenyl)-5,7-diazaspiro[3.4]octan-8-yl)benzonitrile] | < 1 µM

Row | Structure (SMILES) | IC50
19 | O=C1N(c2ccc(Br)cc2)C(=O)C(O)(c2cc3ccccc3o2)N1c1ccc(Br)cc1 (centres unmarked) [Example 213, 5-(benzofuran-2-yl)-1,3-bis(4-bromophenyl)-5-hydroxyimidazolidine-2,4-dione] | > 50 µM
20 | O=C1N(c2ccc(Br)cc2)C(=O)C(O)(c2cc3ccccc3s2)N1c1ccc(Br)cc1 (centres unmarked) [Example 214, 5-(benzo[b]thiophen-2-yl)-1,3-bis(4-bromophenyl)-5-hydroxyimidazolidine-2,4-dione] | 10 to 50 µM
21 | O=C1N(c2ccc(Br)cc2)C(=O)C(O)(C2Cc3ccccc3C2)N1c1ccc(Br)cc1 (centres unmarked) [Example 215, 1,3-bis(4-bromophenyl)-5-(2,3-dihydro-1H-inden-2-yl)-5-hydroxyimidazolidine-2,4-dione] | 50 to 100 µM
22 | O=C1N(c2ccc(Br)cc2)C(=O)C(O)(C(F)(F)F)N1c1ccc(Br)cc1 (centres unmarked) [Example 216, 1,3-bis(4-bromophenyl)-5-hydroxy-5-(trifluoromethyl)imidazolidine-2,4-dione] | > 50 µM
23 | CCOC(=O)C1(O)C(c2ccccc2)N(c2ccc(Cl)cc2)C(=O)N1c1ccc(Cl)cc1 (centres unmarked) [Example 217, ethyl 1,3-bis(4-chlorophenyl)-4-hydroxy-2-oxo-5-phenylimidazolidine-4-carboxylate] | 1 to 10 µM
24 | O=C1N(c2ccc(Cl)cc2)C(c2ccccc2)C(O)(CO)N1c1ccc(Cl)cc1 (centres unmarked) [Example 218, 1,3-bis(4-chlorophenyl)-4-hydroxy-4-(hydroxymethyl)-5-phenylimidazolidin-2-one] | 10 to 50 µM
25 | O=C1N(c2ccc(Cl)cc2)[C@H](c2ccccc2)[C@](O)(CO)N1c1ccc(Cl)cc1 [Example 218-1, (4S,5R)-1,3-bis(4-chlorophenyl)-4-hydroxy-4-(hydroxymethyl)-5-phenylimidazolidin-2-one] | 10 to 50 µM
26 | O=C1N(c2ccc(Cl)cc2)[C@@H](c2ccccc2)[C@@](O)(CO)N1c1ccc(Cl)cc1 [Example 218-2, (4R,5S)-1,3-bis(4-chlorophenyl)-4-hydroxy-4-(hydroxymethyl)-5-phenylimidazolidin-2-one] | 10 to 50 µM
27 | C[C@]1(c2cccc(C(F)(F)F)c2)C(O)N(c2ccc(Br)cc2)C(=O)N1c1ccc(Br)cc1 (stereo partly drawn) [Example 219-1, (4S)-1,3-bis(4-bromophenyl)-5-hydroxy-4-methyl-4-(3-(trifluoromethyl)phenyl)imidazolidin-2-one] | 10 to 50 µM
28 | C[C@@]1(c2cccc(C(F)(F)F)c2)C(O)N(c2ccc(Br)cc2)C(=O)N1c1ccc(Br)cc1 (stereo partly drawn) [Example 219-2, (4R)-1,3-bis(4-bromophenyl)-5-hydroxy-4-methyl-4-(3-(trifluoromethyl)phenyl)imidazolidin-2-one] | < 1 µM
29 | CC(C)C1(c2cccc(OC(F)(F)F)c2)C(O)N(c2ccc(Cl)cc2)C(=O)N1c1ccc(Cl)cc1 (centres unmarked) [Example 220, 1,3-bis(4-chlorophenyl)-5-hydroxy-4-isopropyl-4-(3-(trifluoromethoxy)phenyl)imidazolidin-2-one] | < 1 µM
30 | N#Cc1cccc(C2(O)N(c3ccc(Cl)cc3)C(=O)N(c3ccc(Cl)cc3)C23CCOC3)c1 (centres unmarked) [Example 221, 3-(1,3-bis(4-chlorophenyl)-4-hydroxy-2-oxo-7-oxa-1,3-diazaspiro[4.4]nonan-4-yl)benzonitrile] | < 1 µM
31 | N#Cc1cccc(C2(O)N(c3ccc(Cl)cc3)C(=O)N(c3ccc(Cl)cc3)[C@]23CCOC3)c1 (stereo partly drawn) [Example 221-1, 3-((5S)-1,3-bis(4-chlorophenyl)-4-hydroxy-2-oxo-7-oxa-1,3-diazaspiro[4.4]nonan-4-yl)benzonitrile] | < 1 µM
32 | N#Cc1cccc(C2(O)N(c3ccc(Cl)cc3)C(=O)N(c3ccc(Cl)cc3)[C@@]23CCOC3)c1 (stereo partly drawn) [Example 221-2, 3-((5R)-1,3-bis(4-chlorophenyl)-4-hydroxy-2-oxo-7-oxa-1,3-diazaspiro[4.4]nonan-4-yl)benzonitrile] | < 1 µM
33 | Cc1cccc(C2(C)C(O)N(c3ccc(Cl)cc3)C(=O)N2c2ccc(Cl)cc2)c1 (centres unmarked) [Example 222, 1,3-bis(4-chlorophenyl)-5-hydroxy-4-methyl-4-(m-tolyl)imidazolidin-2-one] | < 1 µM
34 | O=C1N(c2ccc(Cl)cc2)C2(CC2)C(O)(c2cccc(OC(F)(F)F)c2)N1c1ccc(Cl)cc1 (centres unmarked) [Example 224, 4,6-bis(4-chlorophenyl)-7-hydroxy-7-(3-(trifluoromethoxy)phenyl)-4,6-diazaspiro[2.4]heptan-5-one] | < 1 µM
35 | O=C1N(c2ccc(Cl)cc2)C2(CC2)C(O)(c2cccc(C(F)(F)F)c2)N1c1ccc(Cl)cc1 (centres unmarked) [Example 225, 4,6-bis(4-chlorophenyl)-7-hydroxy-7-(3-(trifluoromethyl)phenyl)-4,6-diazaspiro[2.4]heptan-5-one] | < 1 µM
